Experimental data published in patent publication US20230104936A1, “TRPML MODULATORS” (Casma Therapeutics, Inc., priority 2019, published 2023).

Test system: TFEB
Assay: TFEB nuclear translocation assay, HeLa wt cells
Format: cell-based
Settings: 2 hrs compound treatment, Table 1 does not say HeLa wt or TRPML1 KO
Procedure, shortened: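 HeLa wt, 2 hr compound, 37° C; 4% PFA fix; anti-TFEB (rabbit, 1:200, overnight 4° C) + Alexa 488 secondary, Hoechst. Imaged ×20, 4 fields/well. Readout: nuclear/ring Alexa 488 intensity ratio; AC50.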

| Structure (SMILES) | AC50 (Homo sapiens, HeLa, 2 h) | AC50 |
| --- | --- | --- |
| CN(C)S(=O)(=O)c1ccc(S(=O)(=O)Nc2ccccc2N2CCN(c3ccc(Cl)cc3F)CC2)cc1 [Compound A-12, N4-{2-[4-(4-chloro-2-fluorophenyl)piperazin-1-yl]phenyl}-N1,N1-dimethylbenzene-1,4-disulfonamide] | ≤ 2 µM |  |
| O=S(=O)(Nc1ccccc1N1CCN(c2ccc(Cl)cc2F)CC1)C1CCOCC1 [Compound A-14, N-{2-[4-(4-chloro-2-fluorophenyl)piperazin-1-yl]phenyl}oxane-4-sulfonamide] | 2.01 to 8 µM |  |
| Cn1nccc1S(=O)(=O)Nc1ccccc1N1CCN(c2ccc(Cl)cc2F)CC1 [Compound A-15, N-{2-[4-(4-chloro-2-fluorophenyl)piperazin-1-yl]phenyl}-1-methyl-1H-pyrazole-5-sulfonamide] | ≥ 10 µM |  |
| CN1CCC(S(=O)(=O)Nc2ccccc2N2CCN(c3ccc(Cl)cc3F)CC2)CC1 [Compound A-16, N-{2-[4-(4-chloro-2-fluorophenyl)piperazin-1-yl]phenyl}-1-methylpiperidine-4-sulfonamide] | 2.01 to 8 µM |  |
| CC(=O)N1CCC(S(=O)(=O)Nc2ccccc2N2CCN(c3ccc(Cl)cc3F)CC2)CC1 [Compound A-17, 1-acetyl-N-{2-[4-(4-chloro-2-fluorophenyl)piperazin-1-yl]phenyl}piperidine-4-sulfonamide] | 2.01 to 8 µM |  |
| Cc1nn(C)c(N2CCN(c3ccc(Cl)cc3F)CC2)c1NS(=O)(=O)c1ccc(S(=O)(=O)N(C)C)cc1 [Compound A-18, N1-(5-(4-(4-chloro-2-fluorophenyl)piperazin-1-yl)-1,3-dimethyl-1H-pyrazol-4-yl)-N4,N4-dimethylbenzene-1,4-disulfonamide] | ≤ 2 µM |  |
| CN(C)S(=O)(=O)c1ccc(S(=O)(=O)Nc2ccccc2C2=CCN(c3ccc(Cl)cc3F)CC2)cc1 [Compound A-19, N1-(2-(1-(4-chloro-2-fluorophenyl)-1,2,3,6-tetrahydropyridin-4-yl)phenyl)-N4,N4-dimethylbenzene-1,4-disulfonamide] | ≤ 2 µM |  |
| O=S(=O)(Nc1ccccc1N1CCN(c2ccc(Cl)cc2F)CC1)c1ccccn1 [Compound A-20, N-{2-[4-(4-chloro-2-fluorophenyl)piperazin-1-yl]phenyl}pyridine-2-sulfonamide] | ≤ 2 µM |  |
| Cn1ccc(S(=O)(=O)Nc2ccccc2N2CCN(c3ccc(Cl)cc3F)CC2)n1 [Compound A-21, N-{2-[4-(4-chloro-2-fluorophenyl)piperazin-1-yl]phenyl}-1-methyl-1H-pyrazole-3-sulfonamide] | 2.01 to 8 µM |  |
| CN(C)S(=O)(=O)c1ccc(S(=O)(=O)Nc2ccccc2C2CCN(c3ccc(Cl)cc3F)CC2)cc1 [Compound A-22, N1-(2-(1-(4-chloro-2-fluorophenyl)piperidin-4-yl)phenyl)-N4,N4-dimethylbenzene-1,4-disulfonamide] | 2.01 to 8 µM |  |
| CN(C)S(=O)(=O)c1ccc(S(=O)(=O)Nc2ccccc2N2CCC(c3ccc(Cl)cc3F)CC2)cc1 [Compound A-23, N4-{2-[4-(4-chloro-2-fluorophenyl)piperidin-1-yl]phenyl}-N1,N1-dimethylbenzene-1,4-disulfonamide] | ≤ 2 µM |  |
| CN(C)S(=O)(=O)c1ccc(S(=O)(=O)Nc2ccccc2N2[C@@H]3CC[C@H]2CN(c2ccc(Cl)cc2F)C3)cc1 [Compound A-25, N4-{2-[(1R,5S)-3-(4-chloro-2-fluorophenyl)-3,8-diazabicyclo[3.2.1]octan-8-yl]phenyl}-N1,N1-dimethylbenzene-1,4-disulfonamide] | ≤ 2 µM |  |
| CN(C)S(=O)(=O)c1ccc(S(=O)(=O)Nc2ccccc2N2CC3CCC2CN3c2ccc(Cl)cc2F)cc1 (stereo not drawn) [Compound A-26, N4-{2-[5-(4-chloro-2-fluorophenyl)-2,5-diazabicyclo[2.2.2]octan-2-yl]phenyl}-N1,N1-dimethylbenzene-1,4-disulfonamide] | ≤ 2 µM |  |
| CN(C)S(=O)(=O)c1ccc(S(=O)(=O)Nc2ccccc2N2C3CC2CN(c2ccc(Cl)cc2F)C3)cc1 [Compound A-27, N4-{2-[3-(4-chloro-2-fluorophenyl)-3,6-diazabicyclo[3.1.1]heptan-6-yl]phenyl}-N1,N1-dimethylbenzene-1,4-disulfonamide] | 2.01 to 8 µM |  |
| CN(C)S(=O)(=O)c1ccc(S(=O)(=O)Nc2ccccc2N2C3CC2CN(c2ccc(Cl)cc2F)C3)cc1 [Compound A-28, N4-{2-[3-(4-chloro-2-fluorophenyl)-3,6-diazabicyclo[3.1.1]heptan-6-yl]phenyl}-N1,N1-dimethylbenzene-1,4-disulfonamide] |  | ≤ 2 µM |
| Cc1nn(C)c(C2=CCN(c3ccc(Cl)cc3F)CC2)c1NS(=O)(=O)c1ccc(S(=O)(=O)N(C)C)cc1 [Compound A-29, N1-(5-(1-(4-chloro-2-fluorophenyl)-1,2,3,6-tetrahydropyridin-4-yl)-1,3-dimethyl-1H-pyrazol-4-yl)-N4,N4-dimethylbenzene-1,4-disulfonamide] | ≥ 10 µM |  |
| CN(C)S(=O)(=O)c1ccc(S(=O)(=O)Nc2ccccc2N2CC3CC(C2)N3c2ccc(Cl)cc2F)cc1 [Compound A-30, N4-{2-[6-(4-chloro-2-fluorophenyl)-3,6-diazabicyclo[3.1.1]heptan-3-yl]phenyl}-N1,N1-dimethylbenzene-1,4-disulfonamide] | ≤ 2 µM |  |

| Structure (SMILES) | AC50 (Homo sapiens, HeLa, 2 h) | AC50 |
| --- | --- | --- |
| CN(C)S(=O)(=O)c1ccc(S(=O)(=O)Nc2ccccc2N2CC3CC2CN3c2ccc(Cl)cc2F)cc1 (stereo not drawn) [Compound A-31, N4-{2-[5-(4-chloro-2-fluorophenyl)-2,5-diazabicyclo[2.2.1]heptan-2-yl]phenyl}-N1,N1-dimethylbenzene-1,4-disulfonamide] | ≤ 2 µM |  |
| CN(C)S(=O)(=O)c1ccc(S(=O)(=O)Nc2ccccc2N2CC=C(c3ccc(Cl)cc3F)CC2)cc1 [Compound A-32, N4-{2-[4-(4-chloro-2-fluorophenyl)-1,2,3,6-tetrahydropyridin-1-yl]phenyl}-N1,N1-dimethylbenzene-1,4-disulfonamide] | ≤ 2 µM |  |
| Cc1nn(C)c(C2CCN(c3ccc(Cl)cc3F)CC2)c1NS(=O)(=O)c1ccc(S(=O)(=O)N(C)C)cc1 [Compound A-33, N1-(5-(1-(4-chloro-2-fluorophenyl)piperidin-4-yl)-1,3-dimethyl-1H-pyrazol-4-yl)-N4,N4-dimethylbenzene-1,4-disulfonamide] | ≥ 10 µM |  |
| COc1cc(S(=O)(=O)Nc2ccccc2N2CCN(c3ccc(Cl)cc3F)CC2)ccn1 [Compound A-34, N-{2-[4-(4-chloro-2-fluorophenyl)piperazin-1-yl]phenyl}-2-methoxypyridine-4-sulfonamide] | ≤ 2 µM |  |
| Cc1nocc1S(=O)(=O)Nc1ccccc1N1CCN(c2ccc(Cl)cc2F)CC1 [Compound A-35, N-{2-[4-(4-chloro-2-fluorophenyl)piperazin-1-yl]phenyl}-3-methyl-1,2-oxazole-4-sulfonamide] | ≥ 10 µM |  |
| CN(C)S(=O)(=O)c1ccc(S(=O)(=O)Nc2nnc(N3CCN(c4ccc(Cl)cc4F)CC3)s2)cc1 [Compound A-36, N4-{5-[4-(4-chloro-2-fluorophenyl)piperazin-1-yl]-1,3,4-thiadiazol-2-yl}-N1,N1-dimethylbenzene-1,4-disulfonamide] | ≤ 2 µM |  |
| Cc1nn(S(=O)(=O)c2ccc(S(=O)(=O)N(C)C)cc2)cc1C1=CCN(c2ccc(Cl)cc2F)CC1 [Compound A-37, 4-({4-[1-(4-chloro-2-fluorophenyl)-1,2,3,6-tetrahydropyridin-4-yl]-3-methyl-1H-pyrazol-1-yl}sulfonyl)-N,N-dimethylbenzene-1-sulfonamide] | 2.01 to 8 µM |  |
| Cc1nn(S(=O)(=O)c2ccc(S(=O)(=O)N(C)C)cc2)cc1C1CCN(c2ccc(Cl)cc2F)CC1 [Compound A-38, 4-({4-[1-(4-chloro-2-fluorophenyl)piperidin-4-yl]-3-methyl-1H-pyrazol-1-yl}sulfonyl)-N,N-dimethylbenzene-1-sulfonamide] | ≤ 2 µM |  |
| Cc1nc(C2CCN(c3ccc(Cl)cc3F)CC2)cn1S(=O)(=O)c1ccc(S(=O)(=O)N(C)C)cc1 [Compound A-39, 4-((4-(1-(4-chloro-2-fluorophenyl)piperidin-4-yl)-2-methyl-1H-imidazol-1-yl)sulfonyl)-N,N-dimethylbenzenesulfonamide] | 2.01 to 8 µM |  |
| CN(C)S(=O)(=O)c1ccc(S(=O)(=O)Nc2nn(C)cc2C2CCN(c3ccccc3F)CC2)cc1 [Compound A-40, N1-(4-(1-(2-fluorophenyl)piperidin-4-yl)-1-methyl-1H-pyrazol-3-yl)-N4,N4-dimethylbenzene-1,4-disulfonamide] | 2.01 to 8 µM |  |
| CCOC(=O)c1ccc(S(=O)(=O)Nc2ccccc2N2CCC(c3ccc(Cl)cc3F)CC2)cc1 [Compound A-41, ethyl 4-({2-[4-(4-chloro-2-fluorophenyl)piperidin-1-yl]phenyl}sulfamoyl)benzoate] | ≥ 10 µM |  |
| O=S(=O)(Nc1ccccc1N1CCC(c2ccc(Cl)cc2F)CC1)c1ccccc1 [Compound A-42, N-{2-[4-(4-chloro-2-fluorophenyl)piperidin-1-yl]phenyl}benzenesulfonamide] | ≥ 10 µM |  |
| O=S(=O)(Nc1ccccc1N1CCN(c2ccc(Cl)cc2F)CC1)N1CCOCC1 [Compound A-43, N-{2-[4-(4-chloro-2-fluorophenyl)piperazin-1-yl]phenyl}morpholine-4-sulfonamide] | ≤ 2 µM |  |
| CN(C)C(=O)c1ccc(S(=O)(=O)Nc2ccccc2N2CCC(c3ccc(Cl)cc3F)CC2)cc1 [Compound A-44, 4-({2-[4-(4-chloro-2-fluorophenyl)piperidin-1-yl]phenyl}sulfamoyl)-N,N-dimethylbenzamide] | ≤ 2 µM |  |
| O=C(NC1CC1)c1ccc(S(=O)(=O)Nc2ccccc2N2CCC(c3ccc(Cl)cc3F)CC2)cc1 [Compound A-45, 4-({2-[4-(4-chloro-2-fluorophenyl)piperidin-1-yl]phenyl}sulfamoyl)-N-cyclopropylbenzamide] | 2.01 to 8 µM |  |
| CN(C)S(=O)(=O)c1ccc(S(=O)(=O)Nc2cccc(N3CCC(c4ccc(Cl)cc4F)CC3)c2)cc1 [Compound A-46, N4-{3-[4-(4-chloro-2-fluorophenyl)piperidin-1-yl]phenyl}-N1,N1-dimethylbenzene-1,4-disulfonamide] | ≥ 10 µM |  |
